pIC50: −log10 of the molar value.
Target: T1, glutathione reductase (GR) (Saccharomyces cerevisiae, UniProt P41921)
T1 sequence (P41921 1-483): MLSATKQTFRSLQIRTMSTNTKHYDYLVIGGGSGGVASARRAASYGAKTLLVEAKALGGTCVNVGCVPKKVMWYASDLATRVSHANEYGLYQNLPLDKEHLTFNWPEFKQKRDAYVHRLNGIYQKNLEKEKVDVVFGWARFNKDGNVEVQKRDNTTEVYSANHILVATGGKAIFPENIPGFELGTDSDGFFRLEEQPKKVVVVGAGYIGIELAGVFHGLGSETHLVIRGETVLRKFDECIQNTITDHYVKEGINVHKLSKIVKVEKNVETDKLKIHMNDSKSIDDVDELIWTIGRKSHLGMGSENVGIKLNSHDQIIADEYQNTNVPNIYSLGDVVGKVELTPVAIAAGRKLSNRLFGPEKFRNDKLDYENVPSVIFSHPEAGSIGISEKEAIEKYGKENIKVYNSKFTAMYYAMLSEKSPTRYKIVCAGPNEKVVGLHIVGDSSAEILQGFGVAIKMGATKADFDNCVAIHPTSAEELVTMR
Assay: enzyme activity assay versus GSH concentration
Assay type: biochemical

Q: N[C@@H](CCC(=O)N[C@@H](CS)C(=O)NCC(=O)O)C(=O)O [GSH, Glutathione] was tested. Which pIC50 did it give?
A: ~2.00

Source: paper PMC6348771 (Redox Biology, 2018)
